The numbers were not newly measured in US20070148689A1, “Compositions and methods for the prevention, treatment and detection of tuberculosis and other diseases” (priority 2000, published 2007), which cites them from elsewhere.

Molecules are shown by their SMILES.

In one data set the target is CODH (Neomoorella thermoacetica, UniProt P27988).
The conditions of data set [1]: chelator by intraperitoneal injection shortly after oral or intraperitoneal administration of nickel.
For data set [2] the following is noted: 10% DTPA in an oil-in-water emulsion.
Another data set concerns the target CO(L)-deficient CODH (Rhodospirillum rubrum, UniProt P31896).

Sequence of CODH (P27989 whole entry): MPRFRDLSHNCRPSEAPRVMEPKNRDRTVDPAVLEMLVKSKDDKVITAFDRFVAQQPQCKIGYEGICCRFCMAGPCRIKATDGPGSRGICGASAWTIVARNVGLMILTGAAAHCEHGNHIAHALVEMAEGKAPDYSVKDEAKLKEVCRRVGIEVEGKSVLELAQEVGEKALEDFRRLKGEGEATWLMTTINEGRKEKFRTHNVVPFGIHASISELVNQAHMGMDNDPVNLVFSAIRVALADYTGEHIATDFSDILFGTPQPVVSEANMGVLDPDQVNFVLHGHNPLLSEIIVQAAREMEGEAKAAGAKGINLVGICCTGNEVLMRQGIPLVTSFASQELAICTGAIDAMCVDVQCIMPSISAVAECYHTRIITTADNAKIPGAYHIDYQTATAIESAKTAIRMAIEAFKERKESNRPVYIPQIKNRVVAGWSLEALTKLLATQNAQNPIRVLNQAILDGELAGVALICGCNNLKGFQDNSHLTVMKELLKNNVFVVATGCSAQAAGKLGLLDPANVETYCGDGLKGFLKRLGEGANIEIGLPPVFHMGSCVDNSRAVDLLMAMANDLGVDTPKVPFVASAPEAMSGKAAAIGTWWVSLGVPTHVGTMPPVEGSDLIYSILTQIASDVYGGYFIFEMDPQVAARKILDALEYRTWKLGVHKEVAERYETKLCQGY
Sequence of CODH (P27988 whole entry): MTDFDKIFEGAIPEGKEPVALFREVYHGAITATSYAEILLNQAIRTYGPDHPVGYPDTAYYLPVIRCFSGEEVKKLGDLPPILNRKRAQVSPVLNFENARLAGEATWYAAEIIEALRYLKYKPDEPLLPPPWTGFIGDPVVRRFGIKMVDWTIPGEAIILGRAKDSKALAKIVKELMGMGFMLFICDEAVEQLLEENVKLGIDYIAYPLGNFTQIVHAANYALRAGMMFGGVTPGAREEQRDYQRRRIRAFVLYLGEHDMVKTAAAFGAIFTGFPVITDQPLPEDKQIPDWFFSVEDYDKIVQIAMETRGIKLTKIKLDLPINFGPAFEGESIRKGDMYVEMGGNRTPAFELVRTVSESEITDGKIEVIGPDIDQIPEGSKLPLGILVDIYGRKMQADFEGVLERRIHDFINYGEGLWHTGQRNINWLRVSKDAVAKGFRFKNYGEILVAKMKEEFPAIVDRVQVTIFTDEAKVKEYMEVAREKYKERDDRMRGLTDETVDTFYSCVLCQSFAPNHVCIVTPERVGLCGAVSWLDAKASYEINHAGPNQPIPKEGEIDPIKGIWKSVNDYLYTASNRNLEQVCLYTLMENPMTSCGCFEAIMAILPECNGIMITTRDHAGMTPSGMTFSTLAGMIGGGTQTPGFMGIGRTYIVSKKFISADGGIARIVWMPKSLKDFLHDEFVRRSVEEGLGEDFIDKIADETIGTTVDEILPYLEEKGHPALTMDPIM
Sequence of CO(L)-deficient CODH (P31896 whole entry): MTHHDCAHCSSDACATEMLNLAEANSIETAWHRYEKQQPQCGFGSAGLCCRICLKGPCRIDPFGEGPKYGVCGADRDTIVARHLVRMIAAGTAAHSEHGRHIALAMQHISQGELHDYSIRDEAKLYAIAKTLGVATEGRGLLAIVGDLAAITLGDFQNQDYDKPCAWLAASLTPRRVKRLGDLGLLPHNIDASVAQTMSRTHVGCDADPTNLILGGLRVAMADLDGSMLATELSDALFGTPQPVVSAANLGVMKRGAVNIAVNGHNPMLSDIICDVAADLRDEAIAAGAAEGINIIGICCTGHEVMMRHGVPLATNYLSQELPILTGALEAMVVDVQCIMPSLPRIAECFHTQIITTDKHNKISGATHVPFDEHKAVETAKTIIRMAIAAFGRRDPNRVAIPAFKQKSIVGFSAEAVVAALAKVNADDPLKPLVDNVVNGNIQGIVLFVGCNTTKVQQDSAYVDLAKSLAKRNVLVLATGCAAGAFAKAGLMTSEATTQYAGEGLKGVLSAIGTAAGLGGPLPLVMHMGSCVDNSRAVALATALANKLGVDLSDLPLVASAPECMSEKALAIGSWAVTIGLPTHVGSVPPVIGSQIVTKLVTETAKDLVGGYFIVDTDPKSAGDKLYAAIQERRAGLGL

As to `c1cnc2c(c1)ccc1cccnc12` [1,10phenanthroline], at CODH, the “Removal of the Ni ion in the A-cluster of CODH” value is listed as “selectively removed”. Moreover, the “Synthesis of acetyl-coenzyme A by CODH without this Ni” value on CODH (after Ni removal by the chelator) is given as “can't catalyze”.

As for `CCN(CC)C(=S)[S-].[Na+]` [DDC, Sodium diethyldithiocarbamate], the “Whole-body retention of nickel” value in data set [1] is recorded as “increased”. On to `O=C(O)[C@@H](S)[C@@H](S)C(=O)O` [DMSA, Meso-2,3-dimercaptosuccinic acid], for which the Water solubility result is recorded as “water-soluble”. For the same molecule, the Toxicity entry (orally-administered metal chelator) is recorded as “non-toxic”.

Turning to `O=C(O)CN(CCN(CC(=O)O)CC(=O)O)CCN(CC(=O)O)CC(=O)O` [DTPA, diethylenetriaminepentaacetic acid], the “Preventive effect in nickel-sensitized patients” value in data set [2] was “preventive effect”.

Take `CCN(CC)C(=S)SSC(=S)N(CC)CC` [TTD, Tetraethylthiuram disulphide]: in data set [1], the “Whole-body retention of nickel” value was “increased”. `CC(=NO)C(C)=NO` [dimethylglyoxime]: on CO(L)-deficient CODH, the “Removal of Ni from CO(L)-deficient CODH by treatment” value is “can be removed”.
